For the experiment, the target named is T1, PIK3CA/PIK3R1 (p110α/p85α) (Homo sapiens, UniProt P42336).
T1 construct: purchased Thermo Fisher Scientific (Life Technologies) SelectScreen
The experiment in a line: SelectScreen Adapta. The experiment is classed as biochemical. The procedure, abridged:
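NU5455 was profiled across the SelectScreen Broad panel of kinase activity and binding assays. Z'LYTE reactions such as CSF1R ran at apparent Km ATP, while the Adapta CAMK1 assay used ATP listed as 10. Values are given as percent.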

The results in this text go back to PMC6934184, “Selective DNA-PKcs inhibition extends the therapeutic index of localized radiotherapy and chemotherapy” (The Journal of Clinical Investigation, 2019).

T1 sequence (P42336 whole entry): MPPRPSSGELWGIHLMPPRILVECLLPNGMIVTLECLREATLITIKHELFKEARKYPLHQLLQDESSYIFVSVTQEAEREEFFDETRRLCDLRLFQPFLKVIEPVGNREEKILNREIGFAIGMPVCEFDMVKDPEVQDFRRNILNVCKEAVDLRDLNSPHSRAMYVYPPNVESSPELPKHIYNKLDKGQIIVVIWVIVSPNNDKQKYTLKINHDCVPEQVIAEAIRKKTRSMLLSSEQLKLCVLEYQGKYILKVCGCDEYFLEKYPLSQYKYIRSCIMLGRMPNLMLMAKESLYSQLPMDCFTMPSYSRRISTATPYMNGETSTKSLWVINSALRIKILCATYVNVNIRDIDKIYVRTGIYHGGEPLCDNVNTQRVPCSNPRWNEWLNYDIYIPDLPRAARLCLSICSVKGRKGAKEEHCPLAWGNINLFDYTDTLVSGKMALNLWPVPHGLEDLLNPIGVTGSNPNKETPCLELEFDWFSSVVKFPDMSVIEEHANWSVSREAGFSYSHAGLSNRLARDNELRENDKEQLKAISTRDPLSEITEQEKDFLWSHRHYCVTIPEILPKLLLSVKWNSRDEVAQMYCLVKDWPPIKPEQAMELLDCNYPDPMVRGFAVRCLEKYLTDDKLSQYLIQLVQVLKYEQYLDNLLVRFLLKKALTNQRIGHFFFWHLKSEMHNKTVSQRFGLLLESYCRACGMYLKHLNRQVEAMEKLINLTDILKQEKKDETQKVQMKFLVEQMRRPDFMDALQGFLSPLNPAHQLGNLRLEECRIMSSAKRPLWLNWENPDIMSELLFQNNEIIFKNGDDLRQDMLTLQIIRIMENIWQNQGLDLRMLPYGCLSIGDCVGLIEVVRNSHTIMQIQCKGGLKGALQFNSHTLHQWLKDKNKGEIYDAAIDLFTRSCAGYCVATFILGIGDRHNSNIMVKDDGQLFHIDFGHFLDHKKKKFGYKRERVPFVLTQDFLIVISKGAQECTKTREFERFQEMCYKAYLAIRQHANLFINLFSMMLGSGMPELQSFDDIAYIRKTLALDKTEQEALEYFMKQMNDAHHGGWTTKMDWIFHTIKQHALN
T1 sequence (P27986 whole entry partner): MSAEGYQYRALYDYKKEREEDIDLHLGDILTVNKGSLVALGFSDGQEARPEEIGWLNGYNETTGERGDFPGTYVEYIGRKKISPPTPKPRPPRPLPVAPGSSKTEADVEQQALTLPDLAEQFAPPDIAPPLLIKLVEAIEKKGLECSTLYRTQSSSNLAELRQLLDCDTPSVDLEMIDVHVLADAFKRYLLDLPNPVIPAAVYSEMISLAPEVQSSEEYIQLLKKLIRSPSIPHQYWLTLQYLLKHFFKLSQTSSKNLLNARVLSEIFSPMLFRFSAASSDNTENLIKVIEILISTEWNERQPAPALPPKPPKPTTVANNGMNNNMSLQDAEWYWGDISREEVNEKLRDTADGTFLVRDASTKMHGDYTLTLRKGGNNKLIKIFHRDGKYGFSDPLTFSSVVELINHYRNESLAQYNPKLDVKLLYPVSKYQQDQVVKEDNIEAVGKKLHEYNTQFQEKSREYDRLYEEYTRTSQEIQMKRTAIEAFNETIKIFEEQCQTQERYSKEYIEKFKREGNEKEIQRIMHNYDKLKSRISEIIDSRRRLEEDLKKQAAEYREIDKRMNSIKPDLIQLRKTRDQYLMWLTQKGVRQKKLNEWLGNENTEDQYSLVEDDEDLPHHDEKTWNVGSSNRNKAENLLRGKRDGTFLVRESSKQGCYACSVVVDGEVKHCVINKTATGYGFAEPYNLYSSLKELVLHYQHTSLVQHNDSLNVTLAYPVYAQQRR

In general, inhibition refers to the change of the read-out against control, counted positive when it falls. A low value points to a weak effect. Turning to `CN(C(=O)CN1CCOCC1)c1ccc2sc3c(-c4cccc5c(=O)cc(N6CC7CCC(C6)O7)oc45)cccc3c2c1` [NU5455], the inhibition at 1 µM came to 4.2%.
